We go through 26 molecules from ChEMBL document CHEMBL4265980, “Hemozoin inhibiting 2-phenylbenzimidazoles active against malaria parasites” (Eur J Med Chem, 2018).

Calls of active or inactive are those of the source. No cut-off for these calls is given here.

In series [1] the test system is Plasmodium falciparum. Description: Antiplasmodial activity against asexual erythrocyte stage of chloroquine-sensitive Plasmodium falciparum NF54 infected in human red blood cells after 48 hrs by lactate dehydrogenase assay. In kind it is functional, organism-based. As to conditions: for IC50: NF54, 48 h.
A short description of series [2]: Inhibition of beta hematin formation after 5 to 6 hrs by NP40 detergent-based assay.
The next series concerns CHO. The series is described as follows: Cytotoxicity against CHO cells by MTT assay. The series is classed as cell-based. As to conditions: Cricetulus griseus. For orientation: Formazan colour is commonly taken as a measure of viable cells.
Series [3] is described as follows: Selectivity index, ratio of IC50 for CHO cells to IC50 for asexual erythrocyte stage of chloroquine-resistant Plasmodium falciparum Dd2 infected in human red blood cells. As to conditions: Chinese hamster, read-out: Ratio IC50. The series is classed as toxicity, cell-based.
Series [4] relates to Plasmodium falciparum. The series is described as follows: Antiplasmodial activity against Plasmodium falciparum NF54 assessed as decrease in hemozoin levels after 32 hrs by spectrophotometric analysis. The series is classed as functional, organism-based.
The subject of series [5] is Plasmodium falciparum. Description: Antiplasmodial activity against asexual erythrocyte stage of chloroquine-resistant Plasmodium falciparum Dd2 infected in human red blood cells after 48 hrs by lactate dehydrogenase assay. The series is classed as functional, organism-based. As to conditions: Dd2, 48 h.
The nature of series [6]: Selectivity index, ratio of IC50 for CHO cells to IC50 for asexual erythrocyte stage of chloroquine-sensitive Plasmodium falciparum NF54 infected in human red blood cells. The series is classed as toxicity, cell-based. As to conditions: Chinese hamster, read-out: Ratio IC50.
Series [7] concerns Plasmodium falciparum. The series is described as follows: Antiplasmodial activity against Plasmodium falciparum NF54 assessed as increase in undigested hemoglobin levels after 32 hrs by spectrophotometric analysis. In kind it is functional, organism-based.
Series [8] is described as follows: Resistance index, ratio of IC50 for asexual erythrocyte stage of chloroquine-resistant Plasmodium falciparum Dd2 infected in human red blood cells to IC50 for asexual erythrocyte stage of chloroquine-sensitive Plasmodium falciparum NF54 infected in human red blood cells. In kind it is functional.

Turning to `O=C(Nc1ccc(-c2nc3ccccc3[nH]2)cc1)c1cccs1`, the IC50 was 7.2 µM with Plasmodium falciparum [1] (read-out: IC50), 7.24 µM in the series with Plasmodium falciparum [1] (read-out: pIC50 (converted)) and 42.4 µM in series [2]. In [2], the 1/IC50 was determined as 0.0236 µM⁻¹.

With `c1ccc2[nH]cnc2c1`, the outcome with Plasmodium falciparum [1] was inactive. In [2], the inhibition entry is “inactive”.

As to `O=C(Nc1ccc(-c2nc3ccccc3[nH]2)cc1)c1cccc(Cl)c1`, the IC50 was 1.21 µM in the series with Plasmodium falciparum [1] (read-out: IC50), 1.2 µM in the series with Plasmodium falciparum [1] (read-out: pIC50 (converted)) and 25.1 µM in series [2]. The same molecule displayed a 1/IC50 in series [2] of 0.0398 µM⁻¹.

As for `O=C(Nc1ccc(-c2nc3ccccc3[nH]2)cc1)c1ccc(Cl)cc1`, the IC50 is 64 µM in the series with Plasmodium falciparum [1] (read-out: IC50), 64.6 µM with Plasmodium falciparum [1] (read-out: pIC50 (converted)) and 1790 µM in [2]. In series [2], the 1/IC50 came to 0.0006 µM⁻¹.

As for `O=C(Nc1ccc(-c2nc3ccccc3[nH]2)cc1)c1ccco1`, the IC50 in the series with Plasmodium falciparum [1] (read-out: IC50) is 5.9 µM; in the series with Plasmodium falciparum [1] (read-out: pIC50 (converted)), 5.89 µM; in [2], 84.1 µM. Besides, in [2], the 1/IC50 turned out to be 0.0119 µM⁻¹.

`O=C(Nc1ccc(-c2nc3ccccc3[nH]2)cc1)c1cccc(C(F)(F)F)c1`: the IC50 with Plasmodium falciparum [1] (read-out: IC50) is 1.34 µM; with Plasmodium falciparum [1] (read-out: pIC50 (converted)), 1.35 µM; in [2] it was 28.1 µM. Besides, the 1/IC50 in [2] was determined as 0.0356 µM⁻¹.

As for `Nc1ccc(-c2nc3ccccc3[nH]2)cc1`, in the series on Plasmodium falciparum [1], the result was inactive. The inhibition result in series [2] is “inactive”.

In the case of `O=C(Nc1ccc(-c2nc3ccccc3[nH]2)cc1)c1cncc(Br)c1`, the IC50 is 189 µM with CHO; 0.41 µM in the series with Plasmodium falciparum [1] (read-out: IC50); 0.407 µM with Plasmodium falciparum [1] (read-out: pIC50 (converted)); 0.96 µM in the series on Plasmodium falciparum [5]; 32 µM in series [2]. The selectivity ratio in series [3] was found to be 197; in series [6] it was 461. In addition, the result with Plasmodium falciparum [4] and with Plasmodium falciparum [7] was Active. In addition, the “Ratio IC50” value in [8] turned out to be 2.4. Also, the 1/IC50 in series [2] amounted to 0.0313 µM⁻¹.

Turning to `O=C(Nc1ccccc1)c1cncc(Br)c1`, in the series on Plasmodium falciparum [1], the result was inactive. In [2], the inhibition entry is “inactive”.

Take `O=C(Nc1ccc(-c2nc3ccccc3[nH]2)cc1)c1ccccc1[N+](=O)[O-]`: the IC50 in the series with Plasmodium falciparum [1] (read-out: IC50) is 12.3 µM; with Plasmodium falciparum [1] (read-out: pIC50 (converted)), 12.3 µM; in series [2], 28.9 µM. In addition, the 1/IC50 in [2] was found to be 0.0346 µM⁻¹.

In the case of `O=C(Nc1ccc(-c2nc3ccccc3[nH]2)cc1)c1cccnc1`, the figures for the IC50 (with Plasmodium falciparum [1] (read-out: IC50); with Plasmodium falciparum [1] (read-out: pIC50 (converted)); in series [2]) were 11.6 µM, 11.5 µM and 35.6 µM, respectively. Further, in series [2], the 1/IC50 amounted to 0.0281 µM⁻¹.

In the case of `CC(=O)Nc1ccccc1`, the result with Plasmodium falciparum [1] was inactive. Also, the inhibition result in series [2] is “inactive”.

`CC[C@H]1CN2CCc3cc(OC)c(OC)cc3[C@@H]2C[C@@H]1C[C@H]1NCCc2cc(OC)c(OC)cc21` [EMETINE] came in with an IC50 in the series with CHO of 0.12 µM.

Take `O=C(Nc1ccc(-c2nc3ccccc3[nH]2)cc1)c1cc([N+](=O)[O-])cc([N+](=O)[O-])c1`: the IC50 was 206 µM with CHO; 0.67 µM with Plasmodium falciparum [1] (read-out: IC50); 0.676 µM in the series on Plasmodium falciparum [1] (read-out: pIC50 (converted)); 0.31 µM with Plasmodium falciparum [5]; 13.3 µM in series [2]. Moreover, the selectivity ratio stood at 665 in series [3] and 308 in series [6]. The “Ratio IC50” value in series [8] is listed as 0.46. The 1/IC50 in series [2] came to 0.0752 µM⁻¹.

For the molecule `O=C(Nc1ccc(-c2nc3ccccc3[nH]2)cc1)c1cc(Cl)nc(Cl)c1`, the IC50 is 184 µM in the series with CHO; 0.53 µM with Plasmodium falciparum [1] (read-out: IC50); 0.525 µM in the series with Plasmodium falciparum [1] (read-out: pIC50 (converted)); 0.34 µM in the series on Plasmodium falciparum [5]; 16.8 µM in series [2]. The selectivity ratio in series [3] stood at 541; in [6], 347. In series [8], the “Ratio IC50” value was determined as 0.64. Moreover, in series [2], the 1/IC50 was 0.0595 µM⁻¹.

In the case of `O=C(O)c1cncc(Br)c1`, the result with Plasmodium falciparum [1] was inactive. Besides, the inhibition result in series [2] is “inactive”.

Turning to `CC(C)(C)c1ccc(C(=O)Nc2ccc(-c3nc4ccccc4[nH]3)cc2)cc1`, the IC50 was 2 µM in the series on Plasmodium falciparum [1] (read-out: IC50), 2 µM with Plasmodium falciparum [1] (read-out: pIC50 (converted)) and 358 µM in [2]. Moreover, the 1/IC50 in [2] is 0.0028 µM⁻¹.

In the case of `CC(=O)Nc1ccc(-c2nc3ccccc3[nH]2)cc1`, the outcome in the series with Plasmodium falciparum [1] was inactive. Further, the inhibition result in series [2] was “inactive”.

In the case of `O=C(Nc1ccc(-c2nc3ccccc3[nH]2)cc1)c1ccc[nH]1`, the IC50 with Plasmodium falciparum [1] (read-out: IC50) is 1.2 µM; in the series on Plasmodium falciparum [1] (read-out: pIC50 (converted)), 1.2 µM; in [2], 46.6 µM. The 1/IC50 in series [2] amounted to 0.0215 µM⁻¹.

As for `O=C(Nc1ccc(-c2nc3ccccc3[nH]2)cc1)c1cccc(Br)c1`, the values for the IC50 (in the series with Plasmodium falciparum [1] (read-out: IC50); in the series on Plasmodium falciparum [1] (read-out: pIC50 (converted)); in series [2]) were 1.3 µM, 1.29 µM and 24.5 µM, respectively. Also, the 1/IC50 in series [2] worked out at 0.0408 µM⁻¹.

In the case of `O=C(Nc1ccc(-c2nc3ccccc3[nH]2)cc1)c1ccccc1`, the IC50 in the series with Plasmodium falciparum [1] (read-out: pIC50 (converted)) was 257 µM; in series [2] it was 3900 µM. This molecule also returned a 1/IC50 in [2] of 0.0003 µM⁻¹.

For the molecule `O=C(Nc1ccc(-c2nc3ccccc3[nH]2)cc1)c1ccc(Cl)cc1Cl`, the IC50 with Plasmodium falciparum [1] (read-out: IC50) was 7.2 µM; with Plasmodium falciparum [1] (read-out: pIC50 (converted)) it was 7.24 µM; in series [2], 90 µM. In [2], this molecule showed a 1/IC50 of 0.0111 µM⁻¹.

In the case of `O=C(Nc1ccc(-c2nc3ccccc3[nH]2)cc1)c1ccccc1Cl`, the IC50 with Plasmodium falciparum [1] (read-out: IC50) is 15 µM; in the series on Plasmodium falciparum [1] (read-out: pIC50 (converted)) it was 15.1 µM; in series [2] it was 38.2 µM. Also, the 1/IC50 in series [2] was determined as 0.0262 µM⁻¹.

As for `CNC(=O)c1cncc(Br)c1`, the outcome in the series with Plasmodium falciparum [1] was inactive. For the same molecule, in series [2], the inhibition result was “inactive”.

Consider `COc1ccccc1C(=O)Nc1ccc(-c2nc3ccccc3[nH]2)cc1`, for which the IC50 in the series with Plasmodium falciparum [1] (read-out: IC50) was 5.5 µM; in the series on Plasmodium falciparum [1] (read-out: pIC50 (converted)), 5.5 µM; in [2], 38.9 µM. The molecule further came in with a 1/IC50 in series [2] of 0.0257 µM⁻¹.

Take `O=C(Nc1ccc(-c2nc3ccccc3[nH]2)cc1)c1cncc(C(F)(F)F)c1`: the IC50 with CHO is 35 µM; with Plasmodium falciparum [1] (read-out: IC50), 0.8 µM; in the series with Plasmodium falciparum [1] (read-out: pIC50 (converted)), 0.794 µM; in the series with Plasmodium falciparum [5] it was 1.1 µM; in series [2], 16.6 µM. The selectivity ratio in [3] worked out at 32; in series [6] it was 44. In addition, the “Ratio IC50” value in series [8] is 1.4. The 1/IC50 in [2] worked out at 0.0602 µM⁻¹.
